Earlier results as cited in patent publication US9987253B2, “Cannabinoid receptor antagonists/inverse agonists useful for treating metabolic disorders, including obesity and diabetes” (Jenrin Discovery, priority 2012, dated 2018).

Conditions: type 2 diabetes patients not treated with other anti-diabetic medications, six months, baseline 7.9

Cc1c(C(=O)NN2CCCCC2)nn(-c2ccc(Cl)cc2Cl)c1-c1ccc(Cl)cc1 [rimonabant]
HbA1c levels lowered: 0.8%
